PubChem BioAssay (NCI)
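Compound exposure: 48 hours, 5 concentrations, 96-well plates. The concentration for 50% growth inhibition is given as GI50. TGI marks complete inhibition of growth.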

Tests used:
Experiment in all cases: growth of human tumour cells (NCI), 48 h
786-0 renal = tested on: 786-0 renal
A498 renal = tested on: A498 renal
A549 NSCLC = tested on: A549 NSCLC
ACHN renal = tested on: ACHN renal
BT-549 breast = tested on: BT-549 breast
CAKI-1 renal = tested on: CAKI-1 renal
CCRF-CEM leukemia = tested on: CCRF-CEM leukemia
COLO 205 colon = tested on: COLO 205 colon
DU-145 prostate = tested on: DU-145 prostate
EKVX NSCLC = tested on: EKVX NSCLC
HCC-2998 colon = tested on: HCC-2998 colon
HCT-116 colon = tested on: HCT-116 colon
HCT-15 colon = tested on: HCT-15 colon
HL-60(TB) leukemia = tested on: HL-60(TB) leukemia
HOP-62 NSCLC = tested on: HOP-62 NSCLC
HOP-92 NSCLC = tested on: HOP-92 NSCLC
HS 578T breast = tested on: HS 578T breast
HT29 colon = tested on: HT29 colon
IGROV1 ovarian = tested on: IGROV1 ovarian
K-562 leukemia = tested on: K-562 leukemia
KM12 colon = tested on: KM12 colon
LOX IMVI melanoma = tested on: LOX IMVI melanoma
M14 melanoma = tested on: M14 melanoma
MALME-3M melanoma = tested on: MALME-3M melanoma
MCF7 breast = tested on: MCF7 breast
MDA-MB-231 breast = tested on: MDA-MB-231 breast
MDA-MB-435 = tested on: MDA-MB-435
MOLT-4 leukemia = tested on: MOLT-4 leukemia
NCI-H226 lung = tested on: NCI-H226 lung
NCI-H23 lung = tested on: NCI-H23 lung
NCI-H460 lung = tested on: NCI-H460 lung
NCI-H522 lung = tested on: NCI-H522 lung
NCI/ADR-RES ovarian = tested on: NCI/ADR-RES ovarian
OVCAR-3 ovarian = tested on: OVCAR-3 ovarian
OVCAR-4 ovarian = tested on: OVCAR-4 ovarian
OVCAR-5 ovarian = tested on: OVCAR-5 ovarian
OVCAR-8 ovarian = tested on: OVCAR-8 ovarian
PC-3 prostate = tested on: PC-3 prostate
RPMI-8226 leukemia = tested on: RPMI-8226 leukemia
RXF 393 renal = tested on: RXF 393 renal
SF-268 CNS = tested on: SF-268 CNS
SF-295 CNS = tested on: SF-295 CNS
SF-539 CNS = tested on: SF-539 CNS
SK-MEL-2 melanoma = tested on: SK-MEL-2 melanoma
SK-MEL-28 melanoma = tested on: SK-MEL-28 melanoma
SK-MEL-5 melanoma = tested on: SK-MEL-5 melanoma
SK-OV-3 ovarian = tested on: SK-OV-3 ovarian
SN12C renal = tested on: SN12C renal
SNB-19 CNS = tested on: SNB-19 CNS
SNB-75 CNS = tested on: SNB-75 CNS
SR leukemia = tested on: SR leukemia
SW-620 colon = tested on: SW-620 colon
T-47D breast = tested on: T-47D breast
TK-10 renal = tested on: TK-10 renal
U251 CNS = tested on: U251 CNS
UACC-257 melanoma = tested on: UACC-257 melanoma
UACC-62 melanoma = tested on: UACC-62 melanoma
UO-31 renal = tested on: UO-31 renal

CCCn1cnc2c(c1=N)C(c1ccc(F)cc1)c1sc3c(C)cccc3c1O2 (stereo unspecified)
GI50 (786-0 renal): 1.08 µM | TGI (786-0 renal): 14.5 µM | GI50 (A498 renal): 0.584 µM | TGI (A498 renal): 3.95 µM | GI50 (A549 NSCLC): 2.15 µM | TGI (A549 NSCLC): > 48.8 µM | GI50 (ACHN renal): 1.45 µM | TGI (ACHN renal): 16.1 µM | GI50 (BT-549 breast): 5.84 µM | TGI (BT-549 breast): 22.8 µM | GI50 (CAKI-1 renal): 0.546 µM | TGI (CAKI-1 renal): > 39.5 µM | GI50 (CCRF-CEM leukemia): 1.03 µM | TGI (CCRF-CEM leukemia): > 43.8 µM | GI50 (COLO 205 colon): 2.6 µM | TGI (COLO 205 colon): 8.22 µM | GI50 (DU-145 prostate): 3.34 µM | TGI (DU-145 prostate): 29.5 µM | GI50 (EKVX NSCLC): 3.7 µM | TGI (EKVX NSCLC): 27.6 µM | GI50 (HCC-2998 colon): 2.01 µM | TGI (HCC-2998 colon): 6.08 µM | GI50 (HCT-116 colon): 0.467 µM | TGI (HCT-116 colon): 11.8 µM | GI50 (HCT-15 colon): 1.05 µM | TGI (HCT-15 colon): 12.7 µM | GI50 (HL-60(TB) leukemia): 1.48 µM | TGI (HL-60(TB) leukemia): 7.87 µM | GI50 (HOP-62 NSCLC): 2.08 µM | TGI (HOP-62 NSCLC): 31.1 µM | GI50 (HOP-92 NSCLC): 0.458 µM | TGI (HOP-92 NSCLC): 7.5 µM | GI50 (HS 578T breast): 0.961 µM | TGI (HS 578T breast): 14.3 µM | GI50 (HT29 colon): 3.16 µM | TGI (HT29 colon): 12.8 µM | GI50 (IGROV1 ovarian): 1.23 µM | TGI (IGROV1 ovarian): 13.1 µM | GI50 (K-562 leukemia): 0.358 µM | TGI (K-562 leukemia): 22.6 µM | GI50 (KM12 colon): 1.63 µM | TGI (KM12 colon): > 36.3 µM | GI50 (LOX IMVI melanoma): 0.962 µM | TGI (LOX IMVI melanoma): 13.2 µM | GI50 (M14 melanoma): 0.637 µM | TGI (M14 melanoma): 11.3 µM | GI50 (MALME-3M melanoma): 2.66 µM | TGI (MALME-3M melanoma): 24.2 µM | GI50 (MCF7 breast): 0.351 µM | TGI (MCF7 breast): 13.8 µM | GI50 (MDA-MB-231 breast): 3.09 µM | TGI (MDA-MB-231 breast): 15.7 µM | GI50 (MDA-MB-435): 0.328 µM | TGI (MDA-MB-435): 1.27 µM | GI50 (MOLT-4 leukemia): 3.48 µM | TGI (MOLT-4 leukemia): > 54.2 µM | GI50 (NCI-H226 lung): 2.87 µM | TGI (NCI-H226 lung): 15.1 µM | GI50 (NCI-H23 lung): 1.62 µM | TGI (NCI-H23 lung): 10.9 µM | GI50 (NCI-H460 lung): 1.05 µM | TGI (NCI-H460 lung): 11.5 µM | GI50 (NCI-H522 lung): 0.4 µM | TGI (NCI-H522 lung): 12.1 µM | GI50 (NCI/ADR-RES ovarian): 0.425 µM | TGI (NCI/ADR-RES ovarian): 6.99 µM | GI50 (OVCAR-3 ovarian): 0.815 µM | TGI (OVCAR-3 ovarian): 10.6 µM | GI50 (OVCAR-4 ovarian): 2.79 µM | TGI (OVCAR-4 ovarian): > 42.5 µM | GI50 (OVCAR-5 ovarian): 3.66 µM | TGI (OVCAR-5 ovarian): 18.4 µM | GI50 (OVCAR-8 ovarian): 3.79 µM | TGI (OVCAR-8 ovarian): 31 µM | GI50 (PC-3 prostate): 0.638 µM | TGI (PC-3 prostate): 15.2 µM | GI50 (RPMI-8226 leukemia): 0.961 µM | TGI (RPMI-8226 leukemia): 7.91 µM | GI50 (RXF 393 renal): 0.227 µM | TGI (RXF 393 renal): 0.741 µM | GI50 (SF-268 CNS): 2.71 µM | TGI (SF-268 CNS): 21.9 µM | GI50 (SF-295 CNS): 0.581 µM | TGI (SF-295 CNS): 11 µM | GI50 (SF-539 CNS): 1.16 µM | TGI (SF-539 CNS): 5.07 µM | GI50 (SK-MEL-2 melanoma): 5.41 µM | TGI (SK-MEL-2 melanoma): 30.1 µM | GI50 (SK-MEL-28 melanoma): 5.79 µM | TGI (SK-MEL-28 melanoma): 22.7 µM | GI50 (SK-MEL-5 melanoma): 1.25 µM | TGI (SK-MEL-5 melanoma): 11.9 µM | GI50 (SK-OV-3 ovarian): 2.23 µM | TGI (SK-OV-3 ovarian): 38.8 µM | GI50 (SN12C renal): 2.94 µM | TGI (SN12C renal): 14.9 µM | GI50 (SNB-19 CNS): 2.4 µM | TGI (SNB-19 CNS): 18.4 µM | GI50 (SNB-75 CNS): 0.321 µM | TGI (SNB-75 CNS): 13.8 µM | GI50 (SR leukemia): 0.648 µM | TGI (SR leukemia): 15.6 µM | GI50 (SW-620 colon): 1.32 µM | TGI (SW-620 colon): 18.8 µM | GI50 (T-47D breast): 1.97 µM | TGI (T-47D breast): 41.9 µM | GI50 (TK-10 renal): 16.1 µM | TGI (TK-10 renal): 61.5 µM | GI50 (U251 CNS): 2.07 µM | TGI (U251 CNS): 18.1 µM | GI50 (UACC-257 melanoma): 15.6 µM | TGI (UACC-257 melanoma): 39.5 µM | GI50 (UACC-62 melanoma): 0.443 µM | TGI (UACC-62 melanoma): 13.8 µM | GI50 (UO-31 renal): 0.662 µM | TGI (UO-31 renal): 15.1 µM
